According to BindingDB's records for doi:10.1016/j.bmcl.2004.06.041 (Abbott Laboratories, 2004):

Target: Vascular endothelial growth factor receptor 2 (Homo sapiens, UniProt P35968)
Assay: Homogeneous Time-resolved Fluorescence (HTRF) Assay
Conditions: pH 7.4; 22 °C
From the text: The assay was using baculovirus-expressed recombinant protein kinase and biotinylated poly-Glu-Ala-Tyr substrate.

Chain of Vascular endothelial growth factor receptor 2 (P35968 whole entry): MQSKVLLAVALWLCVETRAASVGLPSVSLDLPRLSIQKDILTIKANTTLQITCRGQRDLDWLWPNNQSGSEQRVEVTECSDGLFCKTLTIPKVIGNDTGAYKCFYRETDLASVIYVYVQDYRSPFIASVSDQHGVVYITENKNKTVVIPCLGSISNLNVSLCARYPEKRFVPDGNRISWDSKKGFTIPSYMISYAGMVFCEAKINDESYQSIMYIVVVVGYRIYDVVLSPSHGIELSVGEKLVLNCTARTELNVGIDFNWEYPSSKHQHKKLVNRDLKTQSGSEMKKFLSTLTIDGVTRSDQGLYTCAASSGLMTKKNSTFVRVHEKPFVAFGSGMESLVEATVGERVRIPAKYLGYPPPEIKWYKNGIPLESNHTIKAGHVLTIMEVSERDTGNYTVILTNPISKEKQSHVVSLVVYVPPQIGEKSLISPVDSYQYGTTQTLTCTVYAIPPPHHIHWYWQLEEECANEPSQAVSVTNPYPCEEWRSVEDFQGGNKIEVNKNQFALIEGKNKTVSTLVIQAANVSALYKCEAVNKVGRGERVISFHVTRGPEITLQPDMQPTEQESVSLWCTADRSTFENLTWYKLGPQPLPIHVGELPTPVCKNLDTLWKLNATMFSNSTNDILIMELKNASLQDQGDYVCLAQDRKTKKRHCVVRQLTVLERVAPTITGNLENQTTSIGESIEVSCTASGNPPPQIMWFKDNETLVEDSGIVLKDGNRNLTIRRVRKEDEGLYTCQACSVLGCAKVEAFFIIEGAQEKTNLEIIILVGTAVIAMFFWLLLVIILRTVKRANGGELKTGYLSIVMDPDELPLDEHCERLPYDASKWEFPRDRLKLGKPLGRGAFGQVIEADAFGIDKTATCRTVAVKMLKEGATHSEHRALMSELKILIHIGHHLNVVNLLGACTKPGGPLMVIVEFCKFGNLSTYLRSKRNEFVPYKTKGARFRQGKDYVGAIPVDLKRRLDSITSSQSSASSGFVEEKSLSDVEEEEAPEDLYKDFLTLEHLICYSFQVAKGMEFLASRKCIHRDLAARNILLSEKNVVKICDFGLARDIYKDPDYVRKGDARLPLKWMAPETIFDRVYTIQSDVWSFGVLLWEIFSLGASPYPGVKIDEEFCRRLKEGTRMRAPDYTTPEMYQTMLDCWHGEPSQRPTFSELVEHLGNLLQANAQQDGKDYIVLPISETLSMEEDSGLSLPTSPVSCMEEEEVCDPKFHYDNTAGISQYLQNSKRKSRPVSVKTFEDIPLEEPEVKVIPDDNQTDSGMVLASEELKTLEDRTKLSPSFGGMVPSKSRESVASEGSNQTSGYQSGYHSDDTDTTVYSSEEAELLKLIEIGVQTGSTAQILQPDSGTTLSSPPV

With COc1cc(-c2nn(C3CCC(N4CCN(C)CC4)CC3)c3ncnc(N)c23)ccc1NC(=O)Nc1ccccc1 [1-(4-{(S)-4-Amino-1-[4-(4-methyl-piperazin-1-yl)-cyclohexyl]-1H-pyrazolo[3,4-d]pyrimidin-3-yl}-2-methoxy-phenyl)-3-phenyl-urea] as the compound, how does the IC50 read?
Its IC50 is 263 nM.

How did the IC50 turn out when COc1cc(-c2nn(C3CCC(N4CCN(C)CC4)CC3)c3ncnc(N)c23)ccc1NC(=O)c1ccccc1 [N-(4-{(S)-4-Amino-1-[4-(4-methyl-piperazin-1-yl)-cyclohexyl]-1H-pyrazolo[3,4-d]pyrimidin-3-yl}-2-methoxy-phenyl)-benzamide] was run?
The IC50 was > 50000 nM.
